Assay results as given in patent US10414769B2, “5,8-dimethyl-9-phenyl-5,8-dihydro-6H-pyrazolo[3,4-h]quinazolin-2-yl)-(1H-pyrazol-3-yl)-amines as IGF-1R/IR inhibitors” (Boehringer Ingelheim International GmbH, priority 2015, dated 2019).

Assays:
Format in all cases: biochemical
human IGF-1R = biological target: T1, human IGF-1R (Homo sapiens, UniProt P08069); assay: Insulin-like growth factor-1 receptor (IGF-1R)-kinase assay (DELFIA); conditions: inhibition of IGF-1R-kinase activity
T1 construct: human IGF-1R (amino acids 964-1370) is expressed as a fusion protein; made in house; host or cells: High Five insect cells (Invitrogen)
Description: Insulin-Like Growth Factor-1 Receptor (IGF-1R)-Kinase Assay
The kinase activity is measured by DELFIA® assay (dissociation-enhanced lanthanide fluorescence immunoassay, Perkin Elmer). The cytoplasmic kinase domain of human IGF-1R (amino acids 964-1370) is expressed as a fusion protein with a glutathione-S-transferase tag (IGF-1R-GST) in High Five™ Cells (Invitrogen). Enzyme activity is measured in the presence of substances and a control substance. Poly-glutamate-tyrosine peptide (pEY, Sigma Aldrich) and biotinylated pEY (bio-pEY) are used as reaction substrates.
10 μL of substance in 25% DMSO are mixed with 30 μL of IGF-1R-GST solution (67 mM HEPES pH 7.4, 15 μg/mL pEY, 1.7 μg/mL bio-pEY, 13.3 mM MgCl2, 3.3 mM dithiothreitol, 0.0033% Brij 35, 2 ng IGF-1R-GST) in 96-well plates. The reactions are started with 10 μL of a 750 μM ATP solution. After 40 min at RT the reactions are stopped with 50 μL of stop solution (250 mM EDTA, 20 mM HEPES pH 7.4). 90 μL from each reaction are transferred onto streptavidin-coated 96-well plates. After 120 min incubation at RT the plates are washed three times with 200 μL phosphate-buffered saline (PBS) per well. The plates are incubated for 60 min with 100 μL of europium-coupled antibody against phospho-tyrosine (diluted 1/2000 in Perkin Elmer DELFIA assay buffer) per well. The plates are washed three times with 200 μL per well of DELFIA washing buffer (Perkin Elmer). 100 μL DELFIA Enhancement Solution (Perkin Elmer) is added to each well, and the plates are incubated for 10 min. The fluorescence signal is measured with a Wallac Victor TRF Reader. IC50 values for the inhibition of the IGF-1R-kinase activity are calculated using the programme GraphPad (Version 3.0).

ABL1 = biological target: T2, ABL1 (Homo sapiens, UniProt P00519); assay: Z'-LYTE kinase selectivity assay ABL1
T2 construct: purchased Life Technologies P3049
Source text: (§1) In order to compare the kinase selectivity of compounds (I) according to the invention with known prior art compounds the commercially provided SelectScreen® Kinase Profiling Service (Z′-LYTE®) was used (Life Technologies GmbH, Darmstadt, Germany) to investigate the ability of the compounds to inhibit a number of different, representatively selected human kinases. Further details regarding this service are available on the Life Technologies website at
(§2) The Z′-LYTE® biochemical assay employs a fluorescence-based, coupled-enzyme format and is based on the differential sensitivity of phosphorylated and non-phosphorylated peptides to proteolytic cleavage. The peptide substrate is labeled with two fluorophores—one at each end—that make up a FRET pair.
(§3) In the primary reaction, the kinase transfers the gamma-phosphate of ATP to a single tyrosine, serine or threonine residue in a synthetic FRET-peptide. In the secondary reaction, a site-specific protease recognizes and cleaves non-phosphorylated FRET-peptides. Phosphorylation of FRET-peptides suppresses cleavage by the Development Reagent. Cleavage disrupts FRET between the donor (i.e., coumarin) and acceptor (i.e., fluorescein) fluorophores on the FRET-peptide, whereas uncleaved, phosphorylated FRET-peptides maintain FRET. A ratiometric method, which calculates the ratio (the Emission Ratio) of donor emission to acceptor emission after excitation of the donor fluorophore at 400 nm, is used to quantitate reaction progress, as shown in the equation below.
(§4) The Test Compounds are screened at 1 μM.
The 2×ABL1 (# P3049)/Tyr 02 (Z′-LYTE® Kinase Assay Kit—Tyrosine 2 Peptide, # PV 3191) mixture is prepared in 50 mM HEPES pH 7.5, 0.01% BRIJ-35, 10 mM MgCl2, 1 mM EGTA. The final 10 μL Kinase Reaction consists of 0.29-2.52 ng ABL1 and 2 μM Tyr 02 in 50 mM HEPES pH 7.5, 0.01% BRIJ-35, 10 mM MgCl2, 1 mM EGTA. After the 1 hour Kinase Reaction incubation, 5 μL of a 1:128 dilution of Development Reagent A is to added.

MAPKAPK2 = biological target: T3, MAPKAPK2 (Homo sapiens, UniProt P49137); assay: Z'-LYTE kinase selectivity assay MAPKAPK2
T3 construct: purchased Life Technologies PV 3317
Source text: as §1, §2, §3, §4
The 2×MAPKAPK2 (# PV 3317)/Ser/Thr 04 (Z′-LYTE® Kinase Assay Kit—Ser/Thr 4 Peptide, # PV 3177) mixture is prepared in 50 mM HEPES pH 7.5, 0.01% BRIJ-35, 10 mM MgCl2, 1 mM EGTA. The final 10 μL Kinase Reaction consists of 0.04-0.18 ng MAPKAPK2 and 2 μM Ser/Thr 04 in 50 mM HEPES pH 7.5, 0.01% BRIJ-35, 10 mM MgCl2, 1 mM EGTA. After the 1 hour Kinase Reaction incubation, 5 μL of a 1:1024 dilution of Development Reagent A is added.

STK6 (AURKA (Aurora A)) = biological target: T4, STK6 (AURKA (Aurora A)) (Homo sapiens, UniProt O14965); assay: Z'-LYTE kinase selectivity assay STK6; conditions: read-out: STK6 (Aur A) % inhibition
T4 construct: purchased Life Technologies PV 3612
T4 sequence (O14965 1-403): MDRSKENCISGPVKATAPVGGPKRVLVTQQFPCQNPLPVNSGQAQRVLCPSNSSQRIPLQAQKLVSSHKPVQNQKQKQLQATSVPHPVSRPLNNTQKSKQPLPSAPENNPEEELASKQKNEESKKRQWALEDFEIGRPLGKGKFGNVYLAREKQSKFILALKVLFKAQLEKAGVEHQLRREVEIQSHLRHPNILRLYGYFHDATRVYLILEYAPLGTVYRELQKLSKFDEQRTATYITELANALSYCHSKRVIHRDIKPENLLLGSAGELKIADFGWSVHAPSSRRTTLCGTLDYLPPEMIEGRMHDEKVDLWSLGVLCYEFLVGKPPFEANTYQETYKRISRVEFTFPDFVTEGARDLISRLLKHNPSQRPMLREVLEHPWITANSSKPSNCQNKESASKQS
Source text: as §1, §2, §3, §4
The 2×AURKA (Aurora A) (# PV 3612)/Ser/Thr 01 (Z′-LYTE® Kinase Assay Kit—Ser/Thr 1 Peptide, # PV 3174) mixture is prepared in 50 mM HEPES pH 7.5, 0.01% BRIJ-35, 10 mM MgCl2, 1 mM EGTA. The final 10 μL Kinase Reaction consists of 0.91-12.2 ng AURKA (Aurora A) and 2 μM Ser/Thr 01 in 50 mM HEPES pH 7.5, 0.01% BRIJ-35, 10 mM MgCl2, 1 mM EGTA. After the 1 hour Kinase Reaction incubation, 5 μL of a 1:4096 dilution of Development Reagent A is added.

T3 sequence (P49137 whole entry): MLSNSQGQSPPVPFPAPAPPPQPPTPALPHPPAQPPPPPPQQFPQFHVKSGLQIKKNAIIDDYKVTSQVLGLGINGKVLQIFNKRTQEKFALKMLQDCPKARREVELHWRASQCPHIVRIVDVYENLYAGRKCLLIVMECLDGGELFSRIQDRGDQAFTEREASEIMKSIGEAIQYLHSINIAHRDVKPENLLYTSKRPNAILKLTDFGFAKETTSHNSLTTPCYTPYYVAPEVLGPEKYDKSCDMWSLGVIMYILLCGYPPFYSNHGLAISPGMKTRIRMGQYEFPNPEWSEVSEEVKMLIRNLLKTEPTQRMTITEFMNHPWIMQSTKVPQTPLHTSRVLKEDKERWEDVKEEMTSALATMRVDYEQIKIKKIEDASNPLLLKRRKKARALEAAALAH
T2 sequence (P00519 whole entry): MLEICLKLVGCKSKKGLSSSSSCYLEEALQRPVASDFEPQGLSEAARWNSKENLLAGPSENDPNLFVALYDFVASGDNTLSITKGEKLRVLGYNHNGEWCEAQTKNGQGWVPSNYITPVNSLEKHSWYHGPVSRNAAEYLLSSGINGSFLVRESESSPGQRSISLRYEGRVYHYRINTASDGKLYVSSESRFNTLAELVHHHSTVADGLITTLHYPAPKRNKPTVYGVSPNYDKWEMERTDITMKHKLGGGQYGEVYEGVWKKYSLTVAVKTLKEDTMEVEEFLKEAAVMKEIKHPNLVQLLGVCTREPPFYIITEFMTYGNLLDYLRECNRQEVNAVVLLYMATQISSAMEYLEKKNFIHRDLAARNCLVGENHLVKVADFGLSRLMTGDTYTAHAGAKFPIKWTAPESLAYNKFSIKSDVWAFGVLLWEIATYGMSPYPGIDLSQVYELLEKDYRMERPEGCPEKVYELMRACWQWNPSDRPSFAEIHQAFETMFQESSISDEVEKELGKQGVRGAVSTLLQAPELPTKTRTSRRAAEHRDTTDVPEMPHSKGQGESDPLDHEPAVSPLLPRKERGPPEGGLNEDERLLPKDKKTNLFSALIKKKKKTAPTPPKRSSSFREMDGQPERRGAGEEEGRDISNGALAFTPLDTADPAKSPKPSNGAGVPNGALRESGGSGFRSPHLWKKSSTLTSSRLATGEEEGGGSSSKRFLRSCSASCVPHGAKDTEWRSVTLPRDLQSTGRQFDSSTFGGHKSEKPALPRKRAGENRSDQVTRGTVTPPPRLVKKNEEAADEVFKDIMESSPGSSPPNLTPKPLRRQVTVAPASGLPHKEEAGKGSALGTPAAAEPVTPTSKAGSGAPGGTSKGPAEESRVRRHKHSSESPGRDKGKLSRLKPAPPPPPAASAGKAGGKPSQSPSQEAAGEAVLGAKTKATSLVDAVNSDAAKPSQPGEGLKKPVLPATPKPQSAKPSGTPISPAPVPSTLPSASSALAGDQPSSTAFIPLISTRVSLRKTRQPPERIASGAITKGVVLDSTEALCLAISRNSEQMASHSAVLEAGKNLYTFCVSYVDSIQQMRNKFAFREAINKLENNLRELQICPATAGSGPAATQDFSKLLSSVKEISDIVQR
T1 sequence (P08069 964-1367 limits assumed): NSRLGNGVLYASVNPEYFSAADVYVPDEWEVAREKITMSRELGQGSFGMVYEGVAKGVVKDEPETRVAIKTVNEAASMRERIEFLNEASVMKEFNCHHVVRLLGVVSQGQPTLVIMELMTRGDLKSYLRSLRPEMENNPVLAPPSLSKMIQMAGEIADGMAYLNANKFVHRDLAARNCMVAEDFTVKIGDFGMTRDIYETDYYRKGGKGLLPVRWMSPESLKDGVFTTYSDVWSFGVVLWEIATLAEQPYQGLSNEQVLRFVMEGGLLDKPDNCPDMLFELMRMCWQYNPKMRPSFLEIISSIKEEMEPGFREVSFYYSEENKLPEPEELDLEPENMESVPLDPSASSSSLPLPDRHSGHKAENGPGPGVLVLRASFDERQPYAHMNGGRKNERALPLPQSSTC

| IC50 (human IGF-1R) | inhibition at 1 µM (ABL1) | inhibition at 1 µM (MAPKAPK2) | inhibition at 1 µM (STK6 (AURKA (Aurora A))) | Structure (SMILES) |
| --- | --- | --- | --- | --- |
| 1 nM | 22% | 5% | 5% | CC(O)CN1CCN(CCn2ccc(Nc3ncc4c(n3)-c3c(nn(C)c3-c3ccccc3)C[C@H]4C)n2)CC1 (stereo partly shown) [Compound I-7] |
| 0.9 nM | 10% | -2% | -12% | COCCN1CCN(CCn2ccc(Nc3ncc4c(n3)-c3c(nn(C)c3-c3ccccc3)C[C@H]4C)n2)CC1 [Compound I-11] |
| 1.9 nM | 27% | 2% | 14% | C[C@@H]1Cc2nn(C)c(-c3ccccc3)c2-c2nc(Nc3ccn(CCN4CCN(CC(C)(C)O)CC4)n3)ncc21 [Compound I-3] |
| 0.9 nM | 24% | -3% | -15% | C[C@@H]1Cc2nn(C)c(-c3ccccc3)c2-c2nc(Nc3ccn(CCN4CCN(C)CC4)n3)ncc21 [Compound I-1] |
| 2.8 nM | 10% | 5% | 6% | C[C@@H]1Cc2nn(C)c(-c3ccccc3)c2-c2nc(Nc3ccn(CCN4CCN(CC(=O)OC5CCOCC5)CC4)n3)ncc21 [Compound I-8] |
| 1.2 nM | 17% | 3% | 10% | C[C@@H]1Cc2nn(C)c(-c3ccccc3)c2-c2nc(Nc3ccn(CCN4CCN(CC5CCCO5)CC4)n3)ncc21 (stereo partly shown) [Compound I-9] |
| 1.3 nM | 17% | 1% | 12% | C[C@@H]1Cc2nn(C)c(-c3ccccc3)c2-c2nc(Nc3ccn(CCN4CCOCC4)n3)ncc21 [Compound I-2] |
